pIC50: −log10 of the molar value. Where two headings read alike, the source gives them in different places.
How the values were obtained:
[1] = tested on: Klebsiella pneumoniae expressing VIM-1 (IHMA599644); assay: Antibiotic potentiation activity: synergistic concentration (MITC95) with imipenem, growth by OD600; assay type: cell-based
Method in brief: (§1)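 Strains grown overnight at 35° C, resuspended in saline, diluted 1:100 into 1.1×CAMHB; imipenem at 1 μg/ml or 4 μg/ml with test compound 200 μM to 0.195 μM. Incubated 22 hours to 24 hours at 35° C, OD600 read; MITC95 is lowest compound concentration inhibiting 95% of growth.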

[2] = tested on: Serratia marcescens expressing IMP-1 (CL5741); assay: as above; assay type: cell-based
Method in brief: as §1

[3] = tested on: Escherichia coli expressing NDM-1 (CLB30005); assay: as above; assay type: cell-based; settings: 95% inhibition of bacterial growth, strain CLB30005
Method in brief: as §1

IMP-1 = IMP-1 (Serratia marcescens, UniProt P52699); assay: Enzyme activity: determination of IC50, fluorescence assay with CCF2-FA substrate; assay type: biochemical; settings: CCF2-FA 1.25 μM, 2 hours at 25° C., read-out: IMP1 IC50
Method in brief: (§2)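 Enzyme (1 pM NDM-1, 2 pM IMP-1, 30 pM VIM-1) incubated with inhibitor (20 to 0.00063 μM) and 1.25 μM CCF2-FA in 100 mM KH2PO4 pH 7, 0.005% Tween-20, 10 μM ZnSO4, 2 h at 25 °C. Fluorescence read at 460 nm (ex 405 nm); IC50 by 4-parameter fit.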

NDM-1 = NDM-1 (Klebsiella pneumoniae, UniProt C7C422); assay: as above; assay type: biochemical; settings: CCF2-FA 1.25 μM, 2 hours at 25° C., read-out: NDM1 IC50
Method in brief: as §2

VIM-1 = VIM-1 (Pseudomonas aeruginosa, UniProt A0A0F7KYQ8); assay: as above; assay type: biochemical; settings: CCF2-FA 1.25 μM, 2 hours at 25° C., read-out: VIM1 IC50
Method in brief: as §2

[4] = tested on: Escherichia coli expressing NDM-1 (CLB30016); assay: Antibiotic potentiation activity: synergistic concentration (MITC95) with imipenem, growth by OD600; assay type: cell-based; settings: E. coli CLB30016 (NDM-1), 95% inhibition of growth
Method in brief: as §1

[5] = 95% inhibition of bacterial growth, strain IHMA599644
[6] = 95% inhibition of bacterial growth, strain CL5741
[7] = K. pneumoniae IHMA599644 (VIM-1), 95% inhibition of growth
[8] = S. marcescens CL5741 (IMP-1), 95% inhibition of growth

Sequence of IMP-1 (P52699 19-246, looked up, species assumed): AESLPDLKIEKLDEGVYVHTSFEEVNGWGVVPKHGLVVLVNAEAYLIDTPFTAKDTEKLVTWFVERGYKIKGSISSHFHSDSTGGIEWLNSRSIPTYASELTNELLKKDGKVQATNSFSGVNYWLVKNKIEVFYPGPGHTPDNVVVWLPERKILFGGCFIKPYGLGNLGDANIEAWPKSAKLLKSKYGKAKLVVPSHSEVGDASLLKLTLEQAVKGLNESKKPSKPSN
Sequence of NDM-1 (C7C422 29-270, looked up, species assumed): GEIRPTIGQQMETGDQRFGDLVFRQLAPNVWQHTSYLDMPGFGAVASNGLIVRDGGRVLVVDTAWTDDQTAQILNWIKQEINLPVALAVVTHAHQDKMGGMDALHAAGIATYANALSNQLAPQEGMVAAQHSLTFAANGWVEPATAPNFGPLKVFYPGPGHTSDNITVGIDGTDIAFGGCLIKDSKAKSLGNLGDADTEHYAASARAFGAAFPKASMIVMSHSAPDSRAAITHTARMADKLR

Row | SMILES | VIM1 KP599644 MITC95 [1, 5] | IMP1 SM5741 MITC95 [2, 6] | NDM1 EC30005 MITC95 [3] | pIC50 (IMP-1; enzyme 2 pM) | pIC50 (NDM-1; enzyme 1 pM) | pIC50 (VIM-1; enzyme 30 pM) | VIM1 KP599644 MITC95 [1, 7] | IMP1 SM5741 MITC95 [2, 8] | NDM1 EC30016 MITC95 [4] | pIC50 (IMP-1; IMP-1 enzyme 2 pM) | pIC50 (NDM-1; NDM-1 enzyme 1 pM) | pIC50 (VIM-1; VIM-1 enzyme 30 pM)
1 | COCCC[C@H](C(=O)O)[C@H](Cc1ccccc1)c1nnn[nH]1 [Example 9, (2S)-5-methoxy-2-[(1S)-2-phenyl-1-(1H-tetrazol-5-yl)ethyl]pentanoic acid] | 200 µM | 25 µM | 31 µM | 6.07 | 7.01 | 7.20 | – | – | – | – | – | –
2 | O=C(O)[C@@H](CC1CCCC1)[C@H](Cc1ccccc1)c1nnn[nH]1 [Example 10, (2S,3S)-2-(cyclopentylmethyl)-4-phenyl-3-(1H-tetrazol-5-yl)butanoic acid] | 150 µM | 7.0 µM | 50 µM | 7.32 | 7.33 | 7.54 | – | – | – | – | – | –
3 | O=C(O)[C@@H](CCC1CCCCC1)[C@H](Cc1ccccc1)c1nnn[nH]1 [Example 11, (2S,3S)-2-(2-cyclohexylethyl)-4-phenyl-3-(1H-tetrazol-5-yl)butanoic acid] | >200 µM | 27 µM | 25 µM | 6.64 | 7.24 | 7.47 | – | – | – | – | – | –
4 | O=C(O)[C@@H](C1CCOCC1)[C@H](Cc1ccccc1)c1nnn[nH]1 [Example 12, (2S,3S)-4-phenyl-2-(tetrahydro-2H-pyran-4-yl)-3-(1H-tetrazol-5-yl)butanoic acid] | 200 µM | 200 µM | 12.5 µM | 5.98 | 7.00 | 7.07 | – | – | – | – | – | –
5 | O=C(O)[C@@H](CC1CC1)[C@H](Cc1ccccc1)c1nnn[nH]1 [Example 13, (2S,3S)-2-(cyclopropylmethyl)-4-phenyl-3-(1H-tetrazol-5-yl)butanoic acid] | 50 µM | 150 µM | 12.5 µM | 6.34 | 6.89 | 7.80 | – | – | – | – | – | –
6 | CC(C)=CCC[C@@H](C(=O)O)[C@H](Cc1ccccc1)c1nnn[nH]1 [Example 14, (2R)-6-methyl-2-[(1S)-2-phenyl-1-(1H-tetrazol-5-yl)ethyl]hept-5-enoic acid] | 100 µM | 200 µM | 15.6 µM | 5.80 | 6.82 | 7.43 | – | – | – | – | – | –
7 | O=C(O)[C@@H](C1CCCC1)[C@H](Cc1ccccc1)c1nnn[nH]1 [Example 17, (2S,3S)-2-cyclopentyl-4-phenyl-3-(1H-tetrazol-5-yl)butanoic acid] | 37.5 µM | 37.5 µM | 18.8 µM | 6.96 | 7.80 | 8.43 | – | – | – | – | – | –
8 | CCCC(C)[C@H](C(=O)O)[C@H](Cc1ccccc1)c1nnn[nH]1 (stereo partly drawn) [Example 18, (2S)-3-methyl-2-((S)-2-phenyl-1-(1H-tetrazol-5-yl)ethyl)hexanoic acid] | 200 µM | 37.5 µM | 18.8 µM | 7.52 | 7.59 | 7.44 | – | – | – | – | – | –
9 | CC(C)C[C@H](C(=O)O)[C@H](Cc1ccc(-c2ccc(CN)cc2)c(F)c1)c1nn[nH]n1 [Example 454, (4′-((2S,3S)-3-carboxy-5-methyl-2-(2H-tetrazol-5-yl)hexyl)-2′-fluoro-[1,1′-biphenyl]-4-yl)methanaminium 2,2,2-trifluoroacetate] | – | – | – | – | – | – | 25 µM | 1.563 µM | 4.688 µM | 7.61 | 7.53 | 8.45
10 | CC(C)C[C@H](C(=O)O)[C@H](Cc1ccc(C2=CCC(N)CC2)c(F)c1)c1nn[nH]n1 (stereo partly drawn) [Example 455, 4′-((2S,3S)-3-carboxy-5-methyl-2-(2H-tetrazol-5-yl)hexyl)-2′-fluoro-2,3,4,5-tetrahydro-[1,1′-biphenyl]-4-aminium 2,2,2-trifluoroacetate] | – | – | – | – | – | – | 18.75 µM | 3.125 µM | 4.688 µM | 7.62 | 7.63 | 8.47
11 | CC(C)C[C@H](C(=O)O)[C@H](Cc1ccc(-c2ccc(C(N)=O)cc2)c(F)c1)c1nn[nH]n1 [Example 456, (S)-2-((S)-2-(4′-carbamoyl-2-fluoro-[1,1′-biphenyl]-4-yl)-1-(2H-tetrazol-5-yl)ethyl)-4-methylpentanoic acid] | – | – | – | – | – | – | 37.5 µM | 0.7813 µM | 18.75 µM | 8.15 | 8.36 | 9.20
